Results on seven compounds are retold here after patent KR20140032201A, “로리오라이드를 유효성분으로 함유하는 세포 노화 억제용 조성물” (영남대학교 산학협력단, priority 2012, dated 2014).

Where two headings read alike, the source gives them in different places.

Data set [1] deals with reactive oxygen species in human fibroblasts (활성산소, 사람 섬유아세포). Put plainly: Intracellular reactive oxygen species by DCF flow cytometry, adriamycin-treated human fibroblasts. The data set is classed as cell-based. Particulars: 500 nM adriamycin 4 h, 3 days, DCF fluorescence.
Data set [2] concerns human fibroblasts (사람 섬유아세포). Nature of the data set: Adriamycin-induced senescence, SA-β-gal activity staining, human fibroblasts. In kind it is cell-based.
The test system of data set [3] is human umbilical vein endothelial cells (제대정맥혈관내피세포). Nature of the data set: MTT cytotoxicity, umbilical vein endothelial cells. Particulars: 10 ug/ml. In kind it is cell-based.
Data set [4] relates to human fibroblasts with replicative senescence (복제노화가 유도된 사람 섬유아세포). Nature of the data set: Replicative senescence, SA-β-gal activity staining, old human fibroblasts. In kind it is cell-based. Particulars: increasing concentrations.
In data set [5] the test system is human umbilical vein endothelial cells (제대정맥혈관내피세포). Put plainly: Adriamycin-induced senescence, SA-β-gal activity staining, umbilical vein endothelial cells. In kind it is cell-based. Particulars: 500 nM adriamycin 4 h, then 10 ug/ml, 3 days.
In data set [6] the test system is human fibroblasts (사람 섬유아세포). Nature of the data set: MTT cytotoxicity, human fibroblasts. In kind it is cell-based. Particulars: 10 ug/ml.
The test system of data set [7] is Caenorhabditis elegans (꼬마선충). Particulars: C. elegans, literature; cited from earlier work.
The test system of data set [8] is cellular senescence (세포노화). Particulars: cited from earlier work.
In a further data set the test system is mouse model (생쥐모델). Particulars: literature; cited from earlier work.

`CC1(C)CC(O)CC2(C)OC(=O)C=C12` (single isomer, unassigned; (-)) [로리오라이드[(-)-loliolide], (-)-loliolide]: in data set [1], the “reactive oxygen species increased by adriamycin” value is “활성산소도 감소시킴”. Further, the “SA-β-gal activity staining increased by adriamycin” value is given as “감소되었으나” in data set [2] (500 nM adriamycin 4 h, then 10 ug/ml, 3 days) and “변화가 없었다” in [5]. Moreover, the “concentration dependence of inhibition of adriamycin-increased SA-β-gal activity” value in data set [2] (increasing concentrations) is recorded as “농도를 증가시킬수록 감소함”. Also, the “cytotoxicity (MTT)” value in [3] and in data set [6] was “세포독성이 관찰되지 않았다” in each case. Also, the “SA-β-gal activity increased in old cells (replicative senescence)” value in data set [4] is reported as “농도 의존적으로 늙은 세포에서 증가된 SA-β-gal 활성을 감소시킴”.
Turning to `Nc1ccc(S(=O)(=O)c2ccc(N)cc2)cc1` [4,4'-diaminodiphenylsulfone], in [7], the healthspan entry is listed as “건강수명을 늘리는” and the “occurrence of ageing-related diseases” value was “노화관련 질환의 발생을 억제하며”.
For the compound `CC(=O)N[C@@H](CS)C(=O)O` [N-아세틸시스테인(N-acetylcysteine), N-acetylcysteine], the entries for the “inhibition of cellular senescence” value in [8] (literature; NAC)) and in data set [8] (literature) were “세포노화 억제 효능이 있는 것으로 보고된” and “세포노화를 억제한다”, respectively.
For the compound `CS(=O)(=O)Nc1ccc([N+](=O)[O-])cc1OC1CCCCC1` [NS398], the “inhibition of cellular senescence” value in data set [8] (literature) was “세포노화를 억제한다”.
On to `CO[C@H]1C[C@@H]2CC[C@@H](C)[C@@](O)(O2)C(=O)C(=O)N2CCCC[C@H]2C(=O)O[C@H]([C@H](C)C[C@@H]2CC[C@@H](O)[C@H](OC)C2)CC(=O)[C@H](C)/C=C(\C)[C@@H](O)[C@@H](OC)C(=O)[C@H](C)C[C@H](C)/C=C/C=C/C=C/1C` [라파마이신(rapamycin), rapamycin], for which, in the data set on mouse model (생쥐모델), the healthspan result is “건강수명을 늘리는” and the “occurrence of ageing-related diseases” value is “노화관련 질환의 발생을 억제하며”. Also, the “inhibition of cellular senescence” value in data set [8] (literature) is given as “세포노화 억제 효능이 있는 것으로 보고된”.
Regarding `O=C1O[C@H]([C@@H](O)CO)C(O)=C1O` [비타민 C], in data set [8] (literature), the “inhibition of cellular senescence” value is “세포노화를 억제한다”.
“epifriedelanol [에피프리에델라놀(epifriedelanol)]”: in [8] (literature), the “inhibition of cellular senescence” value is recorded as “세포노화를 억제한다”.
